Columns and labels:
[1] = measurement of the relative dielectric constant ε of the peptide in water in a measuring capacitor; type: physicochemical; conditions: dissolved in water, 1.14 mM, 4 microlitres, t=23° C.
Description: According to further variant for the detection of posttranslational activities, the dielectric constant (permittivity) of a liquid sample with a sensor is measured. As is evident from FIG. 3A, the sample is located in a detection cell (measuring cell 11) serving as a capacitor. The introduction of a polarizing dielectric between the capacitor plates reduces the electric field intensity in vacuum E0 to P/ε0: E=E0−P/ε0 (4) where […] and P is the induced polarization of the dielectric with dielectric constant ε.
The polypeptides (S1) or (S2) dissolved in water have been placed as a dielectric between the electrode plates of the measuring capacitor (measuring cell 11), see FIG. 3A. Polypeptide ELDVPIPGRFDRRVSVAAD (S1) is a specific substrate for protein kinase A which catalyses the phosphorylation of serine. Phosphatase PP2B implements the dephosphorylation of serine of the polypeptide ELDVPIPGRFDRRVpSVAAD (S2). […]
Regarding the detection of peptide modification in tests through the measurement of the relative dielectric constant ε, the following should be added: four microlitres of samples, each containing the polypeptide S1 (unphosphorylated) or S2 (phosphorylated) (table 1), dissolved in water to a concentration of 1.14 mM, are directly introduced between the electrode plates of a measuring capacitor. The dielectric constant ε is measured at a temperature of t=23° C. […]

[2] = measurement of the frequency shift of an oscillator with the peptide sample as core of the induction coil; type: physicochemical; conditions: 150 μL sample, 1.14M in water, t=22° C., f0=5342.9 kHz; S2 instead of S1
Excerpt: According to a further variant of the method for the detection of posttranslational activities, the polypeptides (S1) or (S2) dissolved in water and used as substrates are located in a measuring cell with an inductivity of L and a capacitance of C which functions as an oscillator (FIG. 5). The frequency ω can be determined by […] which can be measured to a high degree of accuracy (10^−5).
For the detection of peptide modification through the measurement of the frequency shift of an oscillator, an experiment was carried out as follows:
A tube containing 150 μL of samples with unphosphorylated peptide S1 or phosphorylated peptide S2 (concentration […] in water) was placed as the core in an induction coil of an oscillator. Frequency f was measured at temperature t=22° C., f0=5342.9 kHz.

oscillator frequency change [2]	Substance	dielectric constant ε [1]
–	ELDVPIPGRFDRRVSVAAD [Sensor S1, synthesized polypeptide sensor, specific substrate for protein kinase A]	76
distinct reduction in frequency	ELDVPIPGRFDRRVpSVAAD [Sensor S2]	70

Reference: patent publication US20060216779A1, “Method for the detection of post-translational modification activities and device system for carrying out said method” (priority 2003, published 2006)
